Among the data in patent US20260217687A1 (NeoPhore Limited, priority 2023, published 2026) are IC50 values, retold here.

Usually IC50 stands for the point on the concentration scale where inhibition reaches its midpoint.

The target in assay [1] is T1, recombinant N-terminal PMS2 (residues 1-365) (Homo sapiens, UniProt P54278).
T1 construct: recombinant N-terminal PMS2 (residues 1-365)
T1 sequence (P54278 1-365): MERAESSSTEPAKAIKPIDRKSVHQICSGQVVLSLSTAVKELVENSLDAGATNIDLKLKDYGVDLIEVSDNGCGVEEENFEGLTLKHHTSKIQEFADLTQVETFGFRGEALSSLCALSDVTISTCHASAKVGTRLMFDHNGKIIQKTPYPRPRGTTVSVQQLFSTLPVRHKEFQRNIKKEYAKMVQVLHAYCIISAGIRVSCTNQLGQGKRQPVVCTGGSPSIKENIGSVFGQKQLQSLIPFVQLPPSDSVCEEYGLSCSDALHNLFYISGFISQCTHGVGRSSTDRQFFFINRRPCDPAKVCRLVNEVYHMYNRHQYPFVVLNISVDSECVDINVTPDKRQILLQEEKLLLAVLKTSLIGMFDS
Briefly: Fluorescence Polarisation Assay for PMS2. The class given is binding. As to conditions: 10 nM N-terminal PMS2, 5 nM probe compound. The procedure:
Fluorescence Polarisation Assay for PMS2
Test compounds, as 10 mM DMSO stocks, were dispensed into a Black Fluotrac 200 384 well medium binding plate (Greiner Bio-One, item number 781076) using a Labcyte Echo acoustic liquid handler. For single point screening, test compounds were added to wells in columns 1-22 whilst DMSO was added to wells in columns 23 and 24 to normalise the plate. For potency determination, serial dilutions of test compounds were added to wells in columns 3-22 and DMSO volume was normalised across the plate. […] 20 μL assay buffer was added to all wells in columns 1 and 24 (column 24 only for single point screening) using a MultiDrop Combi (ThermoFisher). Plates were centrifuged for 1 minute at 250 xg and were incubated at room temperature for 30 minutes prior to the addition of 20 μL of 2×(20 nM) of 5-((5-(4-((2-(2,4-dihydroxy-5-isopropylbenzoyl) isoindolin-5-yl) methyl)piperazin-1-yl) pentyl)carbamoyl)-2-(6-(dimethylamino)-3-(dimethyliminio)-3H-xanthen-9-yl)benzoate (referred to hereinafter as “probe compound”) in assay buffer (prepared from a 100 μM DMSO stock) with a MultiDrop Combi (ThermoFisher). The final concentration of N-terminal PMS2 was 10 nM and the final concentration of probe compound was 5 nM. Compound plates were centrifuged for 1 minute at 250 xg for 1 minute and were incubated at room temperature for 1 hour before being read on a PheraStar FSX (fitted with 384-well aperture spoon and 540 590 590 FP optic module). The gain and focus were adjusted before each plate was read so that the polarisation of a no enzyme control (column 24) was equal to 35 mP. Data were normalised against the no inhibitor controls (column 23) and no enzyme controls (column 24).
For orientation: In fluorescence polarisation assays a small probe gives low polarisation when free and higher when bound to something large.

The target of assay [2] is T2, recombinant N-terminal MLH1 (residues 15-340) (Homo sapiens, UniProt P40692).
T2 construct: recombinant N-terminal MLH1 (residues 15-340)
T2 sequence (P40692 15-340): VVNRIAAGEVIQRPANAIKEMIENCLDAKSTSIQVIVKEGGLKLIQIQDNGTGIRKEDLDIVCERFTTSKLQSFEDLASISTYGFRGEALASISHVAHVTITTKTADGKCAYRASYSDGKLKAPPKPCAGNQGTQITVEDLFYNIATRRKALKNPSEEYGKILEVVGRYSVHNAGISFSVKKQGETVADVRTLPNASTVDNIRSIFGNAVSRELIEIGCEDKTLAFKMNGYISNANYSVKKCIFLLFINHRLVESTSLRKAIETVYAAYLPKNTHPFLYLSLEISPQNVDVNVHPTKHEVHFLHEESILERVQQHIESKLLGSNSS
Briefly: Fluorescence Polarisation Assay for MLH1. It is filed as binding. As to conditions: 100 nM N-terminal MLH1, 5 nM probe compound. In a few lines: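 Fluorescence polarisation displacement: 100 nM MLH1 (15-340) preincubated 30 min at room temperature with compound, then 5 nM rhodamine-labelled probe added and read immediately. Buffer 25 mM HEPES pH 7.5, 250 mM NaCl, 10 mM MgCl2, 0.01% Triton X-100, 5 mM DTT; normalised to no-inhibitor and no-enzyme controls.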

As for `CN(C)CCOc1ccc2c(c1)CCN(C(=O)c1c(O)cc(C(F)F)cc1OCc1ccccc1)C2` [Example 4.41, (2-(Benzyloxy)-4-s(difluoromethyl)-6-hydroxyphenyl)(6-(2-(dimethylamino)ethoxy)-3,4-dihydroisoquinolin-2(1H)-yl)methanone], the IC50 in assay [1] and in assay [2] was 100 to 1000 nM in each case. `CN1CC[C@H](Oc2ccc3c(c2)CN(C(=O)c2c(O)cc(C(F)F)cc2OCc2ccccc2)C3)C1` [Example 4.56, (S)-(2-(Benzyloxy)-4-(difluoromethyl)-6-hydroxyphenyl)(5-((1-methylpyrrolidin-3-yl)oxy)isoindolin-2-yl)methanone]: the IC50 in assay [1] is 1000 to 10000 nM; in assay [2] it was under 100 nM.

Regarding `CN1CCC(Oc2ccc3c(c2)CN(C(=O)c2c(O)cc(F)cc2OCc2ccccc2)C3)CC1` [Example 10.25, (2-(Benzyloxy)-4-fluoro-6-hydroxyphenyl) (5-((1-methylpiperidin-4-yl)oxy)isoindolin-2-yl) methadone], the IC50 in assay [1] lay in the range of 1000 to 10000 nM; in assay [2], 100 to 1000 nM.

`CN(C)CCOc1cccc2c1CCN2C(=O)c1c(O)cc(C#N)cc1OCc1ccccc1` [Example 27.12, 3-(Benzyloxy)-4-(4-(2-(dimethylamino)ethoxy)indoline-1-carbonyl)-5-hydroxybenzonitrile]: the IC50 in assay [2] was in the range of 1000 to 10000 nM. With `CN(C)CCOc1cccc2c1CCN2C(=O)c1c(O)cc(C(F)F)cc1OCc1ccccc1` [Example 27.13, (2-(Benzyloxy)-4-(difluoromethyl)-6-hydroxyphenyl)(4-(2-(dimethylamino)ethoxy)indolin-1-yl)methanone], the IC50 in assay [2] was in the range of 100 to 1000 nM.

Take `N#Cc1cc(O)c(C(=O)N2CCc3cccnc32)c(OCc2ccccc2)c1` [Example 27.14, 3-(Benzyloxy)-4-(2,3-dihydro-1H-pyrrolo[2,3-b]pyridine-1-carbonyl)-5-hydroxybenzonitrile]: the IC50 in assay [2] was in the range of 1000 to 10000 nM. Take `O=C(c1c(O)cc(C(F)F)cc1OCc1ccccc1)N1CCc2cccnc21` [Example 27.15, (2-(Benzyloxy)-4-(difluoromethyl)-6-hydroxyphenyl)(2,3-dihydro-1H-pyrrolo[2,3-b]pyridin-1-yl)methanone]: in assay [2], the IC50 lay in the range of 1000 to 10000 nM.

For the molecule `CN(C)CCOc1nc2c(c(NC3CCOC3)n1)CN(C(=O)c1c(O)cc(C#N)cc1OCc1ccccc1)CC2` (stereo not shown) [Example 27.16, 3-(Benzyloxy)-4-(2-(2-(dimethylamino)ethoxy)-4-((tetrahydrofuran-3-yl)amino)-5,6,7,8-tetrahydropyrido[4,3-d]pyrimidine-6-carbonyl)-5-hydroxybenzonitrile], the IC50 in assay [2] lay within 100 to 1000 nM.

Regarding `CN(C)CCOc1nc2c(c(NC3CCOC3)n1)CN(C(=O)c1c(O)cc(C(F)F)cc1OCc1ccccc1)CC2` (stereo not shown) [Example 27.17, (2-(Benzyloxy)-4-(difluoromethyl)-6-hydroxyphenyl)(2-(2-(dimethylamino)ethoxy)-4-((tetrahydrofuran-3-yl)amino)-7,8-dihydropyrido[4,3-d]pyrimidin-6(5H)-yl)methanone], the IC50 in assay [2] is 100 to 1000 nM. Still for that read-out and setting: in the case of `N#Cc1cc(O)c(C(=O)N2CCCc3cc(NC4CCOC4)ccc32)c(OCc2ccccc2)c1` (stereo not shown) [Example 27.18, 3-(Benzyloxy)-5-hydroxy-4-(6-((tetrahydrofuran-3-yl)amino)-1,2,3,4-tetrahydroquinoline-1-carbonyl)benzonitrile] it was 1000 to 10000 nM; in that of `O=C(c1c(O)cc(C(F)F)cc1OCc1ccccc1)N1CCCc2cc(NC3CCOC3)ccc21` (stereo not shown) [Example 27.19, (2-(Benzyloxy)-4-(difluoromethyl)-6-hydroxyphenyl)(6-((tetrahydrofuran-3-yl)amino)-3,4-dihydroquinolin-1(2H)-yl)methanone], 1000 to 10000 nM. On to `O=C(c1c(O)cc(C(F)F)cc1OCc1ccccc1)N1CCc2ncnc(NC3CCOC3)c2C1` (stereo not shown) [Example 27.20, (2-(Benzyloxy)-4-(difluoromethyl)-6-hydroxyphenyl)(4-((tetrahydrofuran-3-yl)amino)-7,8-dihydropyrido[4,3-d]pyrimidin-6(5H)-yl)methanone], for which the IC50 in assay [2] was in the range of 100 to 1000 nM.

`O=C(c1c(O)cc(C(F)F)cc1OCc1ccccc1)N1CCc2cnccc21` [Example 27.21, (2-(Benzyloxy)-4-(difluoromethyl)-6-hydroxyphenyl)(2,3-dihydro-1H-pyrrolo[3,2-c]pyridin-1-yl)methanone]: the IC50 in assay [2] lay in the range of 1000 to 10000 nM.

For the molecule `O=C(c1c(O)cc(C(F)F)cc1OCc1ccccc1)N1CCc2ncccc21` [Example 27.22, (2-(Benzyloxy)-4-(difluoromethyl)-6-hydroxyphenyl)(2,3-dihydro-1H-pyrrolo[3,2-b]pyridin-1-yl)methanone], in assay [2], the IC50 fell in the range of 1000 to 10000 nM. As for `O=C(c1c(O)cc(C(F)F)cc1OCc1ccccc1)N1CCc2ccncc21` [Example 27.23, (2-(Benzyloxy)-4-(difluoromethyl)-6-hydroxyphenyl)(2,3-dihydro-1H-pyrrolo[2,3-c]pyridin-1-yl)methanone], in assay [2], the IC50 fell in the range of 1000 to 10000 nM. The same measure, in the same setting: in the case of `O=C(c1c(O)cc(C(F)F)cc1OCc1ccccc1)N1CCc2c(NC3CCOC3)cccc21` (stereo not shown) [Example 27.24, (2-(Benzyloxy)-4-(difluoromethyl)-6-hydroxyphenyl)(4-((tetrahydrofuran-3-yl)amino)indolin-1-yl)methanone] it was 1000 to 10000 nM. In the case of `Cn1ncc2ccc(COc3cc(C(F)F)cc(O)c3C(=O)N3CCc4cccc(N[C@H]5CCOC5)c4C3)cc21` [Example 28, (S)-(4-(Difluoromethyl)-2-hydroxy-6-((1-methyl-1H-indazol-6-yl)methoxy)phenyl)(8-((tetrahydrofuran-3-yl)amino)-3,4-dihydroisoquinolin-2(1H)-yl)methanone], the IC50 in assay [2] is under 100 nM.

For the molecule `O=C(c1c(O)cc(C(F)F)cc1OCC12CC(CO1)C2)N1CCc2cccc(N[C@H]3CCOC3)c2C1` [Example 28.1, (S)-(2-((2-Oxabicyclo[2.1.1]hexan-1-yl)methoxy)-4-(difluoromethyl)-6-hydroxyphenyl)(8-((tetrahydrofuran-3-yl)amino)-3,4-dihydroisoquinolin-2(1H)-yl)methanone], the IC50 in assay [2] was 1000 to 10000 nM. `O=C(c1c(O)cc(C(F)F)cc1OCc1ccc2cnccc2c1)N1CCc2cccc(N[C@H]3CCOC3)c2C1` [Example 28.2, (S)-(4-(Difluoromethyl)-2-hydroxy-6-(isoquinolin-6-ylmethoxy)phenyl)(8-((tetrahydrofuran-3-yl)amino)-3,4-dihydroisoquinolin-2(1H)-yl)methanone]: the IC50 in assay [2] was under 100 nM. Take `O=C(c1c(O)cc(C(F)F)cc1OCc1ccc2ccncc2c1)N1CCc2cccc(N[C@H]3CCOC3)c2C1` [Example 28.3, (S)-(4-(Difluoromethyl)-2-hydroxy-6-(isoquinolin-7-ylmethoxy)phenyl)(8-((tetrahydrofuran-3-yl)amino)-3,4-dihydroisoquinolin-2(1H)-yl)methanone]: the IC50 in assay [2] is 100 to 1000 nM. For the molecule `O=C(c1c(O)cc(C(F)F)cc1OCc1nc2ccccc2[nH]1)N1CCc2cccc(N[C@H]3CCOC3)c2C1` [Example 28.4, (S)-(2-((1H-Benzo[d]imidazol-2-yl)methoxy)-4-(difluoromethyl)-6-hydroxyphenyl)(8-((tetrahydrofuran-3-yl)amino)-3,4-dihydroisoquinolin-2(1H)-yl)methanone], the IC50 in assay [2] was 1000 to 10000 nM. Still for that read-out and setting: to `CC(=O)N1CCC(Oc2ccc3c(c2)CN(C(=O)c2c(O)cc(C(F)F)cc2OCc2ccccc2)C3)CC1` [Example 29, 1-(4-((2-(2-(Benzyloxy)-4-(difluoromethyl)-6-hydroxybenzoyl)isoindolin-5-yl)oxy)piperidin-1-yl) ethan-1-one] belongs under 100 nM.
